Measured values reported in patent US20150164868A1, “METHODS OF ADMINISTERING RIFAXIMIN WITHOUT PRODUCING ANTIBIOTIC RESISTANCE” (priority 2012, published 2015).
Values after ≈ are worked out from the molar mass of the structure shown. Read-outs that look alike come from different tables or passages of the source.

Tests used:
[1] = tested on: Staphylococcus; assay: IBS model (post C. jejuni): presence of Staphylococcus after rifaximin; type: in vivo, Sprague-Dawley rats; conditions: rats with IBS phenotype; 51 rats rifaximin vs 50 placebo
Procedure: Following acute infection with C. jejuni, rats develop a phenotype of IBS and small intestinal bacterial overgrowth. For the examination of antibiotic resistance following rifaximin treatment in subject with IBS, 100 Sprague-Dawley rats were gavaged with 10^8 cfu of C. jejuni 81-176 within 30 minutes of gavage with a bicarbonate solution using a ball-tipped gavage needle. After gavage rats were followed with daily stool culture for C. jejuni for seven consecutive days to verify infection. In addition, stool was characterized on the basis of consistency.
Thirty days from gavage, stool samples were collected on two consecutive days to confirm absence of C. jejuni in stool. Once rats were confirmed to have cleared C. jejuni, they were housed in common conditions for a period of three months. […]
The rats were then randomized and received either a 200 mg dose of rifaximin in PBS or PBS alone daily for 10 days. […] Upon completion of treatment with rifaximin, the rats were monitored for an additional seven days. […]
The effect of rifaximin on Staphylococcal species was tested and antibiotic resistance was examined. The contents of the ligated bowel segments were examined to determine the quantity and type of bacteria by segment and evaluate expression of mucosal cytokines. […]

[2] = tested on: Staphylococcal spp; assay: IBS model: Staphylococcus sensitivity testing to rifampin (E-test strips); type: cell-based
Procedure: The effect of rifaximin on Staphylococcal species was tested and antibiotic resistance was examined. The contents of the ligated bowel segments were examined to determine the quantity and type of bacteria by segment and evaluate expression of mucosal cytokines.
Among rats with detectable staphylococcus, rifampin resistance was tested using E-test strips and Data was analyzed by Fisher's Exact Test. […] (Table 2)

[3] = tested on: coliform bacteria; assay: Effect of dietary fat with rifaximin on coliform bacteria; type: in vivo, Sprague-Dawley rats; conditions: healthy rats
Procedure: Adult male Sprague-Dawley Rats were randomly assigned to three groups. Group 1 was gavaged daily for 7 days with rifaximin in PBS. Group 2 received rifaximin 200 mg in lipid daily by gavage. Group 3 were 10 rats only given PBS (control). Rats had fresh stool collected by anal stimulation at baseline and daily during gavage. The stool was homogenized and plated by serial dilution on MacConkey Agar (BD Diagnostics, Franklin Lakes, N.J.). This is a selective agar for coliform bacteria. Based on serial dilution, the total number of coliform bacteria was determined.

[4] = tested on: coliforms; assay: Stool coliform culture (MacConkey agar) with rifaximin gavage; type: in vivo, Sprague-Dawley rats
Procedure: (§1) After this equilibration period, fresh stool was collected from each rat (n=30) by anal stimulation. The stool collected on Day 0 was homogenized and plated by serial dilution with 1XPBS (Phosphate Buffered Saline) on Blood Agar with Phenylethyl Alcohol (PEA) to select for the presence of the Staphylococcal spp. Similarly, homogenized stool was serially plated on MacConkey agar to select for and determine coliform counts in the stool. All plates were incubated for 24 hours at 37° C. Based on serial stool dilution and colony counts, the baseline stool levels of Staphylococcus spp. and coliforms were determined
Rats were divided into 3 treatment groups and gavaged daily for 10 days with or without high dose rifaximin Group 1 was gavaged with PBS alone, Group 2 was gavaged daily with rifaximin 200 mg in PBS. Groups 1 and 2 were euthanized after the 10 days of daily gavage. Group 3 was gavaged daily with rifaximin 200 mg in PBS and housed for 30 days following completion of rifaximin before euthanasia. During the rifaximin treatment, fresh stool was collected daily as described above. […] After the completion of 10 days of treatment, 10 rats were euthanized for bacterial quantitation by culture and qPCR throughout the intestinal tract. […] These rats had interval stool culture for quantitation of Staphylococcus spp. and coliforms and the determination of recovery time of stool flora if any.

[5] = tested on: Staphylococcus spp.; assay: Rifampicin susceptibility testing (E-test strip) of Staphylococcus colonies isolated from rat stool; type: cell-based; conditions: for MIC: read-out: mean inhibitory concentration (MIC) for rifampicin
Procedure: Rifampicin susceptibility was tested in Staphylococcus spp. isolated from stool of rats before and after rifaximin treatment for 10 days. From PEA plates, 30 random recognizable Staphylococcus colonies were picked for baseline cultures, suspended in PBS and spread on PEA agar plates to create a lawn. A commercially available rifampicin test strip was added to each lawn to detect rifampicin resistance. The range of rifampicin mean inhibitory concentrations (MICs) detected by E-test was 0.002 to 32 μg/mL. Based on manufacturer's instruction, growth at <2 ug/mL was considered sensitive, growth at 2-4 ug/mL was considered intermediate resistance to rifampicin, and growth at >4 ug/mL was considered resistant to rifampicin. After 10 days of rifaximin, stool was again plated on PEA and another 30 staphylococcal colonies were picked for producing a lawn to analyze rifampicin resistance using the applied test strip. Since no significant Staphylococcus spp. colonies remained on day 30 post rifaximin treatment, sensitivity testing could not be assessed.

[6] = tested on: coliforms; assay: Luminal coliform culture by bowel segment; type: in vivo, Sprague-Dawley rats; conditions: after treatment with rifaximin vs non-treated control rats; bowel segments (FIG. 3)
From the text: (§2) For the examination of luminal bacterial counts, rats were euthanized and dissected after 10 days of PBS (n=10) (control), after 10 days of rifaximin (n=10) and 30 days post rifaximin (n=10). During the dissection, pre-specified segments of duodenum, jejunum, ileum, cecum and left colon were ligated and resected as previously described (Pimentel et al. 2008. Dig Dis Sci 53:982-989). Luminal contents were extracted from each segment. For culture of coliforms, serial dilutions were again prepared and plated on MacConkey agar then incubated and counted. In addition, luminal contents were also used to determine total bacterial counts by qPCR.

[7] = tested on: total bacteria; assay: qPCR of total luminal bacteria by bowel segment; type: in vivo, Sprague-Dawley rats
From the text: as §2
To quantify bacteria in the luminal contents, qPCR was used. DNA was isolated from luminal contents of the duodenal, jejunal, ileal, cecal and left colon samples using commercially available kits. Bacterial universal primers (Mohammadi et al. 2003. J Clin Microbiol 41(10):4796-4798) were used to amplify the 16S rRNA gene from DNA using a commercially available RT-PCR detection system and optical grade 96-well plates. Samples were run in duplicate. To generate standard curves, the Ct values were analyzed from ten-fold dilutions of lysed Escherichia coli cultures. E. coli from a number of laboratory strains were pooled and grown in LB media.
The same adult male Sprague-Dawley rats from the coliform culture study described above were used here. In this experiment, ten rats were euthanized at day 10 of rifaximin treatment, and ten rats were euthanized at day 30 after completion of rifaximin treatment. As a control to these two groups, a group of 10 rats were gavaged with only PBS (placebo); these rats were also euthanized after 10 days. After euthanasia, rats were dissected to remove a segment of ileum, jejunum and duodenum as well as cecum and left colon. Luminal contents from these 5 areas were removed, and DNA was extracted. Quantitative PCR (qPCR) was used to determine the total number of bacteria in each segment of bowel. These counts were compared between control, rifaximin treated and 30 day post rifaximin rats (Example 1).

[8] = tested on: Staphylococcus spp.; assay: Stool Staphylococcus spp. colony counts (PEA agar) during and after daily rifaximin gavage; type: in vivo, Sprague-Dawley rats
From the text: Adult male Sprague-Dawley rats were acquired and quarantined for 5 days. During this time, chow was standardized to ensure all animals had identical feeding type.
as §1
Rats were divided into 3 treatment groups and gavaged daily for 10 days with or without high dose rifaximin Group 1 was gavaged with PBS alone, Group 2 was gavaged daily with rifaximin 200 mg in PBS. Groups 1 and 2 were euthanized after the 10 days of daily gavage. Group 3 was gavaged daily with rifaximin 200 mg in PBS and housed for 30 days following completion of rifaximin before euthanasia. During the rifaximin treatment, fresh stool was collected daily as described above. Again, stool was homogenized and plated by serial dilution on MacConkey and PEA agar to determine coliform and Staphylococcus spp. counts during the treatment. After the completion of 10 days of treatment, 10 rats were euthanized for bacterial quantitation by culture and qPCR throughout the intestinal tract. The remaining 10 rats were followed for 30 days after completing rifaximin. These rats had interval stool culture for quantitation of Staphylococcus spp. and coliforms and the determination of recovery time of stool flora if any.

[9] = oral administration; Descombe et al. 1994; cited from earlier work
[10] = tested on: Staphylococcus, Streptococcus, Enterococcus, and Enterobacteriaceae; conditions: species of Staphylococcus; cited from earlier work
[11] = Staphylococcus from IBS-phenotype rats treated with rifaximin
[12] = sensitivity to rifampin, IBS-phenotype rats treated with rifaximin
[13] = after 10 days of gavage with rifaximin, 30 random colonies
[14] = all rats receiving rifaximin (n=20) vs control rats

(2S,16Z,18E,20S,21S,22R,23R,24R,25S,26S,27S,28E)-5,6,21,23,25 Pentahydroxy-27-methoxy-2,4,11,16,20,22,24,26-octamethyl-2,7-(epoxypentadeca-(1,11,13)trienimino)benzofuro(4,5-e)pyrido(1,2,-a)benzimidazole-1,15(2H)-dione,25-acetate) [rifaximin]
rate of colonization of rats with Staphylococcus [1]: reduction in the rate of colonization | Median MIC of rifampin [2, 11]: 0.214 µg/mL | Range of rifampin MIC [2, 11]: 0.012 to 16 µg/mL | rifampin resistance of Staphylococcus after treatment ([2]; rats with an IBS phenotype, detectable staphylococcus, Fisher's Exact Test): no evidence of rifampin resistance | % of rats with resistance ([2]; resistance to rifampin, 51 IBS-phenotype rats treated with rifaximin): 1.96% | # of intermed Staphylococcal spp [2, 12]: 0 | # of resistant Staphylococcal spp [2, 12]: 1 | # of sensitive Staphylococcal spp [2, 12]: 10 | normal flora (coliform) counts in the small bowel ([3]; rifaximin by itself or with oil as dissolving media): did not appear to change normal flora counts | median coliform count in the duodenum ([3]; rifaximin in PBS or rifaximin 200 mg in lipid, daily gavage 7 days): 0 | time to recovery of stool coliform count ([4]; after the 10-day rifaximin treatment): three | median stool coliform count ([4]; day 10 of high dose rifaximin, P<0.01 vs baseline): 2.2×10^3 cfu/mL | Staphylococcal colonies Intermediate (2-4 ug/mL) resistance to rifampin, % [5, 13]: 3.3% | Staphylococcal colonies Sensitive (<2 ug/mL) to rifampin, % [5, 13]: 96.6% | change in luminal coliform counts by culture [6]: no significant change in coliform counts by culture | durability of the reduction in duodenal bacteria counts by qPCR ([7]; after 10 days of rifaximin and 30 days post, P=0.08, not quite significant): sustained 30 days after the completion of rifaximin | duodenal total bacterial counts by qPCR [7, 14]: significant reduction in duodenal bacterial counts | jejunal total bacterial counts by qPCR [7, 14]: appeared to diminish as well, this did not reach statistical significance | total bacterial counts by qPCR in the ileum, cecum or left colon [7, 14]: no differences were seen | Staphylococcus spp. colonies in stool 30 days after rifaximin ([8]; 30 days after completion of 10 days rifaximin): insufficient Staphylococcus spp. colonies in any of the rats to analyze | range of total count of Staphylococcus spp in stool ([8]; after 10 days of rifaximin 200 mg daily gavage, 20 rats): 0-8.6×10^5 cfu/ml | median total count of Staphylococcus spp in stool ([8]; after 10 days of rifaximin 200 mg daily gavage, total of S. aureus and coag-Staphylococcus, 20 rats, p<0.01 vs baseline): 1.20×10^5 cfu/ml | level of S. aureus in stool of rats with detectable S. aureus ([8]; day 10 of rifaximin treatment): 2×10^3 cfu/ml | number of rats with detectable S. aureus in stool ([8]; day 10 of rifaximin treatment, of 20 rats (18/20 at baseline)): 5 | time course of Staphylococcus spp in stool ([8]; during rifaximin 200 mg daily gavage): diminish significantly in stool by day 3 | systemic absorption [9]: negligible systemic absorption | antibacterial activity in vitro [10]: active

CO[C@H]1/C=C/O[C@@]2(C)Oc3c(C)c(O)c4c(O)c(c(/C=N/N5CCN(C)CC5)c(O)c4c3C2=O)NC(=O)/C(C)=C\C=C\[C@H](C)[C@H](O)[C@@H](C)[C@@H](O)[C@@H](C)[C@H](OC(C)=O)[C@@H]1C [rifampicin]
MIC ([5]; 240 h, Staphylococcus colonies from rat stool after 10 days of high dose rifaximin, P=0.63 vs baseline): 0.91 ± 0.52 µg/mL (≈ 1.11 µM) | MIC ([5]; Staphylococcus colonies from rat stool at baseline (before rifaximin)): 1.1 ± 1.6 µg/mL (≈ 1.34 µM)
